Source: ChEMBL document CHEMBL1125168, “Antihypertensive activity of redox derivatives of tryptophan” (J Med Chem, 1990)

Experiment: Second-order rate of Ferricyanide -mediated oxidation using spectrophotometric method
Type: ADME

In order of rising Ko:
1. CCCCCCCCOC(=O)C(Cc1c[nH]c2ccccc12)NC(=O)c1ccc[n+](C)c1 (centres undefined)  7.61 M⁻¹ s⁻¹
2. C[n+]1cccc(C(=O)NC(Cc2c[nH]c3ccccc23)C(=O)OC2CCCCC2)c1 (centres undefined)  12.2 M⁻¹ s⁻¹
3. CCOC(=O)C(Cc1c[nH]c2ccccc12)NC(=O)c1ccc[n+](C)c1 (centres undefined)  13.5 M⁻¹ s⁻¹
4. COC(=O)C(Cc1c[nH]c2ccccc12)NC(=O)c1ccc[n+](C)c1 (centres undefined)  13.8 M⁻¹ s⁻¹
